One assay deals with full-length human LSD1 (Homo sapiens (Human), UniProt O60341). In words: In vitro enzyme inhibition assay LSD-1 (TR-FRET). It counts as biochemical. The conditions noted are these: TR-FRET, 0.1 nM LSD1, 50 nM H3K4me1-biotin peptide, 2 μM FAD, pH7.3; read-out: LSD1 IC50. As for the experimental part: This assay determines the ability of a test compound to inhibit LSD1 demethylase activity.
The enzymatic assay of LSD1 activity is based on Time Resolved-Fluorescence Resonance Energy Transfer (TR-FRET) detection.
The ability of the compounds disclosed herein to inhibit LSD1 activity was quantified and the respective IC50 value was determined. Table 5 provides the IC50 values of various substituted heterocyclic compounds disclosed herein.
On the technique in general: Time-resolved FRET reads energy transfer from a long-lived donor to a nearby acceptor.

The test system of the next assay is THP-1 (AML) cells. Description: LSD1 CD11b cellular assay (flow cytometry). The settings on record: Homo sapiens, 96 h; CD11b expression in THP-1 (AML) cells, flow cytometry, 4 days incubation; read-out: Cellular IC50. The format is cell-based. Summed up:
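THP-1 AML cells treated with serially diluted compound (0.2% DMSO final) for 4 days at 37 °C, 5% CO2. CD11b expression measured by flow cytometry with DAPI staining; IC50 derived from percent CD11b-positive cells versus inhibitor concentration.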
(Flow cytometry measures light scatter and fluorescence of single cells or particles in a stream.)

In the case of `Cc1ccc(-c2cnc(N3CCC4(CC3)CNC4)nc2-c2ccc(C#N)cc2)cc1` [Example 113, 4-[2-(2,7-diazaspiro[3.5]nonan-7-yl)-5-(4-methylphenyl)pyrimidin-4-yl]benzonitrile], the values for the IC50 at full-length human LSD1 and in the assay with THP-1 (AML) cells were < 100 nM and 100 to 1000 nM, respectively.
Take `Cc1ccc(-c2cnc(N3CCC4CNCC4CC3)nc2-c2ccc(C#N)cc2)cn1` (stereo not drawn) [Example 114, 4-[2-(2,3,3a,4,5,7,8,8a-octahydro-1H-pyrrolo[3,4-d]azepin-6-yl)-5-(6-methylpyridin-3-yl)pyrimidin-4-yl]benzonitrile]: the results for the IC50 on full-length human LSD1 and in the assay on THP-1 (AML) cells were < 100 nM and 100 to 1000 nM, respectively.
Take `Cn1ncc2cc(-c3cnc(N4CCC5CNCC5C4)nc3-c3ccc(C#N)cc3)ccc21` (stereo not drawn) [Example 115, 4-[2-(1,2,3,3a,4,6,7,7a-octahydropyrrolo[3,4-c]pyridin-5-yl)-5-(1-methylindazol-5-yl)pyrimidin-4-yl]benzonitrile]: the half-inhibitory concentration (IC50) on full-length human LSD1 and in the assay on THP-1 (AML) cells was < 100 nM in each case.
Take `Cn1ncc2cc(-c3cnc(N4CCC(N)CC4)nc3-c3ccc(C#N)cc3)ccc21` [Example 116, 4-[2-(4-aminopiperidin-1-yl)-5-(1-methylindazol-5-yl)pyrimidin-4-yl]benzonitrile]: the IC50 at full-length human LSD1 and in the assay with THP-1 (AML) cells was < 100 nM in each case.
For `N#Cc1ccc(-c2nc(N3CCC4CNCC4CC3)ncc2-c2ccc3cn[nH]c3c2)cc1` (stereo not drawn) [Example 117, 4-[2-(2,3,3a,4,5,7,8,8a-octahydro-1H-pyrrolo[3,4-d]azepin-6-yl)-5-(1H-indazol-6-yl)pyrimidin-4-yl]benzonitrile], the IC50 on full-length human LSD1 and in the assay with THP-1 (AML) cells was < 100 nM in each case.
In the case of `Cc1ccc(-c2cnc(N3CC4CNCC(C4)C3)nc2-c2ccc(C#N)cc2)cc1` [Example 119, 4-[2-(3,7-diazabicyclo[3.3.1]nonan-3-yl)-5-(4-methylphenyl)pyrimidin-4-yl]benzonitrile], the IC50 (usually the midpoint of a concentration-inhibition curve) at full-length human LSD1 is < 100 nM; in the assay on THP-1 (AML) cells it was 100 to 1000 nM.
Regarding `Cn1ncc2cc(-c3cnc(N4CC5CNCC(C5)C4)nc3-c3ccc(C#N)cc3)ccc21` [Example 120, 4-[2-(3,7-diazabicyclo[3.3.1]nonan-3-yl)-5-(1-methylindazol-5-yl)pyrimidin-4-yl]benzonitrile], the IC50 at full-length human LSD1 is < 100 nM; in the assay with THP-1 (AML) cells it was 100 to 1000 nM.
On to `Cn1cnc2cc(-c3cnc(N4CCC(N)CC4)nc3-c3ccc(C#N)cc3)ccc21` [Example 122, 4-[2-(4-aminopiperidin-1-yl)-5-(1-methylbenzimidazol-5-yl)pyrimidin-4-yl]benzonitrile], for which the IC50 on full-length human LSD1 and with THP-1 (AML) cells was < 100 nM each time.
Consider `COc1ccc(-c2cnc(N3CCC(N)CC3)nc2-c2ccc(C#N)cc2)cn1` [Example 123, 4-[2-(4-aminopiperidin-1-yl)-5-(6-methoxypyridin-3-yl)pyrimidin-4-yl]benzonitrile], for which the IC50 at full-length human LSD1 and in the assay on THP-1 (AML) cells was < 100 nM each time.
In the case of `N#Cc1ccc(-c2nc(N3CCC(N)CC3)ncc2-c2ccc(OCC3CC3)nc2)cc1` [Example 124, 4-[2-(4-aminopiperidin-1-yl)-5-[6-(cyclopropylmethoxy)pyridin-3-yl]pyrimidin-4-yl]benzonitrile], the IC50 at full-length human LSD1 and with THP-1 (AML) cells was < 100 nM in each case.
On to `Cn1cnc2cc(-c3cnc(N4CCC(N)CC4)nc3-c3ccc(C#N)cc3)c(F)cc21` [Example 125, 4-[2-(4-aminopiperidin-1-yl)-5-(6-fluoro-1-methylbenzimidazol-5-yl)pyrimidin-4-yl]benzonitrile], for which the IC50 on full-length human LSD1 and in the assay on THP-1 (AML) cells was < 100 nM each time.
On to `Cn1cnc2cc(-c3cnc(N4CCC(N)CC4)nc3-c3ccc(C#N)cc3)c(F)c(F)c21` [Example 126, 4-[2-(4-aminopiperidin-1-yl)-5-(6,7-difluoro-1-methylbenzimidazol-5-yl)pyrimidin-4-yl]benzonitrile], for which the IC50 on full-length human LSD1 and in the assay on THP-1 (AML) cells was < 100 nM each time.
